The values below come from patent US20190233884A1 (University of Southern California, priority 2016, published 2019).

For series [1] the following is noted: cited from earlier work.
The next series is described as follows: clinical. The settings on record: human, in vivo. The text has this: Neither TPI renal clearance (CLren) nor or tubular secretory Clearance (CLsec) were associated with SNPs in MATE1 (rs2289669 or rs2252281) when tested individually (FIG. 8). […] (FIGS. 8-10). TPI is strongly associated with PFS and OS with regard to renal clearance difference by OCT2 and MATE1 gene-gene interaction.

Counter-ions that a name gives are not always drawn. Like-named read-outs stand apart in the source and are kept apart here.

Take `CN(C)C(=N)N=C(N)N` [metformin, N,N-Dimethylimidodicarbonimidic diamide]: the “CLrenal and CLsec” value in series [1] (healthy volunteers, OCT2 rs316019 heterozygote or homozygote along with MATE1 rs225281 heterozygote) is “significantly lower”. Further, the Clrenal entry in series [1] (stratum 3 (MATE1 WT and OCT2 HM) compared with stratum 1 (MATE1 WT and OCT2 WT)) is recorded as “relatively higher”.

In turn, `N=C1CCCN1Cc1[nH]c(=O)[nH]c(=O)c1Cl` [TPI, tipiracil hydrochloride] displayed a Clrenal in “clinical” of 29.6 L/h. The CL renal in the series “clinical” (Clrenal) was 555 mL/min.
